In patent US6310247A, “7-aryl-6(Z)-heptatrienoic acid retinamides” (Hoffmann-LA Roche Inc., priority 1999, dated 2001) one finds inhibition data, which are given here for six molecules.

Where two headings read alike, the source gives them in different places.

Holding throughout (assay type): cell-based
One assay deals with MDA 231 cells. Description: Cell growth inhibition: MTT assay, MDA 231 (ER- breast carcinoma). The settings on record: Homo sapiens, MDA-MB-231, read-out: % inhibition of cell growth compared to no drug control. As to the method: ER- breast carcinoma, human (MDA-231) obtained from ATCC (HTB 22), were grown in Eagle's MEM medium supplemented with non-essential amino acids, sodium pyruvate, and Earle's BSS, 10% FBS, and 13 ng/mL gentamicin. Cells were incubated at 37° C., 4.5% CO2 and 95.5% humidified air.
(§1) 1. Cell growth inhibition: MTT Assay
(§2) The compounds of formula 1 were tested for ability to inhibit cell growth using the standard MTT assay, a tetrazolium-based assay which measures the viability of cells in culture. Cells were harvested upon reaching 70-80% confluency and pelleted. The cells were then resuspended in medium in which FBS was replaced with Hyclone's Charcoal/Dextran stripped FBS, and seeded (2 mL/well) into 6-well plates (Corning) at a density allowing for linear growth over a four day assay period. Compounds of formula 1 (10 mM stock in dimethylsulfoxide (DMSO)) were added 18-24 hours post-seeding. Compound dilutions were prepared in the appropriate growth media and added to the cells for final concentrations of 10, 3.3 and 1 μM in 0.1% DMSO. At 24, 48 and 72 hr. time points, MTT (3-[4,5-dimethylthiazol-2-yl-2,5-diphenyltetrazolium bromide) stock solution (5mg/mL in 1 PBS) was added to the cells plates (625 μL/well) which were then incubated for 2.5 hours. Liquid was aspirated from the wells and 1 mL/well of 95% ethanol was added to solubilize the formazan reaction product. The plates were shaken (Bellco Mini-Orbital Shaker) for 15 minutes. The solubilized formazan was then transferred (50 μls) into a 96-well plate and the optical densities (OD) were measured (Bio-Tek Microplate Reader) at 570 nm and reference wavelength of 660 nm. Percentage of inhibition of cell growth was calculated according to the following formula: [formula]
In general terms: Tetrazolium assays rely on reduction of a dye to a coloured formazan, in cell work by metabolically active cells.

The subject of a further assay is MDA 435 cells. Description: Cell growth inhibition: MTT assay, MDA 435 (ER- breast carcinoma). The settings on record: Homo sapiens, MDA435, read-out: % inhibition of cell growth compared to no drug control. How it is done: ER- breast carcinoma, human (MDA-435) obtained from Dr. Janet Price, MDA Cancer Center, Houston, Tex., were grown in Gibco's RPMI 1640 media supplemented with sodium pyruvate, 10% FBS and 13 ng/mL gentamicin. Cells were incubated at 37° C., 4.5% CO2 and 95.5% humidified air.
as §1, §2

In another assay the test system is ZR-75-1 cells. Kind of assay: Cell growth inhibition: MTT assay, ZR-75-1 (ER+ breast carcinoma). The conditions noted are these: Homo sapiens, read-out: % inhibition of cell growth compared to no drug control. As to the method: ER+ breast carcinoma, human (ZR-75-1) obtained from ATCC (CRL 1500), were grown in Gibco's RPMI 1640 media supplemented with sodium pyruvate, 10% FBS and 13 ng/mL gentamicin. Cells were incubated at 37° C., 4.5% CO2 and 95.5% humidified air.
as §1, §2

`C/C(=C/C=C/C(C)=C/C(=O)Nc1ccc(O)cc1)c1cc(Br)cc(Br)c1` [N-(4-hydroxyphenyl)-(2E,4E,6Z)-7-(3,5-dibromophenyl)-3,7-dimethyl-2,4,6-heptatrienamide]: the inhibition (commonly the drop in the measured response relative to a control, in per cent) at 1 µM with MDA 231 cells (24 hours) amounted to 6%; in the assay with MDA 231 cells (48 hours), 72%; in the assay with MDA 231 cells (72 hours) it was 78%; in the assay with MDA 435 cells (24 hours), 27%; in the assay with MDA 435 cells (48 hours) it was 70%; in the assay with MDA 435 cells (72 hours) it was 86%. Also, the inhibition at 3.3 µM with MDA 231 cells (24 hours) was 65%; in the assay with MDA 231 cells (48 hours), 81%; with MDA 231 cells (72 hours), 86%; with MDA 435 cells (24 hours) it was 28%; in the assay with MDA 435 cells (48 hours), 66%; with MDA 435 cells (72 hours), 88%. Further, the inhibition at 10 µM worked out at 65% in the assay on MDA 231 cells (24 hours); 82% with MDA 231 cells (48 hours); 87% in the assay on MDA 231 cells (72 hours); 37% with MDA 435 cells (24 hours); 70% in the assay with MDA 435 cells (48 hours); 87% in the assay with MDA 435 cells (72 hours).
In the case of `COc1cc(OC)cc(\C(C)=C/C=C/C(C)=C/C(=O)Nc2ccc(O)cc2)c1` [N-(4-hydroxyphenyl)-(2E,4E,6Z)-7-(3,5-dimethoxyphenyl)-3,7-dimethyl-2,4,6-heptatrienamide], the inhibition at 1 µM came to 18% in the assay on MDA 231 cells (24 hours); 30% with MDA 231 cells (48 hours); 25% in the assay with MDA 231 cells (72 hours); 21% in the assay with MDA 435 cells (24 hours); 64% in the assay on MDA 435 cells (48 hours); 86% with MDA 435 cells (72 hours). Besides, the inhibition at 3.3 µM in the assay on MDA 231 cells (24 hours) turned out to be 21%; in the assay on MDA 231 cells (48 hours), 52%; in the assay on MDA 231 cells (72 hours), 61%; with MDA 435 cells (24 hours) it was 36%; with MDA 435 cells (48 hours), 61%; in the assay on MDA 435 cells (72 hours) it was 87%. Further, the inhibition at 10 µM in the assay with MDA 231 cells (24 hours) turned out to be 30%; in the assay with MDA 231 cells (48 hours), 65%; with MDA 231 cells (72 hours), 64%; in the assay with MDA 435 cells (24 hours), 25%; in the assay with MDA 435 cells (48 hours) it was 61%; in the assay on MDA 435 cells (72 hours), 87%.
Consider `C/C(=C/C=C/C(C)=C/C(=O)Nc1ccc(O)cc1)c1cc(C)cc(C)c1` [N-(4-hydroxyphenyl)-(2E,4E,6Z)-7-(3,5-dimethylphenyl)-3,7-dimethyl-2,4,6-heptatrienamide], for which the inhibition at 1 µM in the assay on MDA 231 cells (24 hours) was found to be 50%; with MDA 231 cells (48 hours) it was 60%; with MDA 231 cells (72 hours), 81%; in the assay with MDA 435 cells (24 hours), 56%; in the assay with MDA 435 cells (48 hours), 95%; in the assay on MDA 435 cells (72 hours), 95%. Also, the inhibition at 3.3 µM worked out at 51% with MDA 231 cells (24 hours); 70% in the assay on MDA 231 cells (48 hours); 82% in the assay on MDA 231 cells (72 hours); 53% in the assay with MDA 435 cells (24 hours); 92% with MDA 435 cells (48 hours); 94% with MDA 435 cells (72 hours). The inhibition at 10 µM with MDA 231 cells (24 hours) is 58%; in the assay on MDA 231 cells (48 hours), 72%; in the assay with MDA 231 cells (72 hours), 85%; with MDA 435 cells (24 hours), 53%; in the assay with MDA 435 cells (48 hours), 98%; with MDA 435 cells (72 hours) it was 91%.
Turning to `CC(/C=C/C(C)=C/C(=O)Nc1ccc(O)cc1)=C(\C)c1cc(C(F)(F)F)cc(C(F)(F)F)c1` [N-(4-hydroxyphenyl)-(2E,4E,6Z)-7-[3,5-bis(trifluoromethyl)phenyl]-3,6,7-trimethyl-2,4,6-heptatrienamide], the inhibition at 1 µM with ZR-75-1 cells (48 hours) worked out at 3%; in the assay on ZR-75-1 cells (72 hours) it was 16%; with MDA 231 cells (24 hours), 0%; in the assay on MDA 231 cells (48 hours), 0%; with MDA 231 cells (72 hours) it was 38%; in the assay with MDA 435 cells (24 hours), 3%. The inhibition at 1 µM is 3% with MDA 435 cells (48 hours) and 4% in the assay on MDA 435 cells (72 hours). Further, the inhibition at 3.3 µM in the assay on ZR-75-1 cells (48 hours) was found to be 0%; with ZR-75-1 cells (72 hours) it was 10%; in the assay on MDA 231 cells (24 hours), 0%; in the assay with MDA 231 cells (48 hours), 0%; in the assay on MDA 231 cells (72 hours) it was 48%; with MDA 435 cells (24 hours) it was 67%. The results for the inhibition at 3.3 µM with MDA 435 cells (48 hours) and in the assay on MDA 435 cells (72 hours) were 95% and 98%, respectively. Besides, the inhibition at 10 µM was 60% in the assay with ZR-75-1 cells (48 hours); 80% in the assay with ZR-75-1 cells (72 hours); 40% in the assay with MDA 231 cells (24 hours); 57% with MDA 231 cells (48 hours); 76% in the assay on MDA 231 cells (72 hours); 68% in the assay on MDA 435 cells (24 hours). Moreover, the inhibition at 10 µM stood at 96% in the assay with MDA 435 cells (48 hours) and 99% in the assay on MDA 435 cells (72 hours).
As for `CC(/C=C/C=C\c1cc(C(F)(F)F)cc(C(F)(F)F)c1)=C\C(=O)Nc1ccc(O)cc1` [N-(4-hydroxyphenyl)-(2E,4E,6Z)-7-[3,5-bis(trifluoromethyl)phenyl]-3-methyl-2,4,6-heptatrienamide], the inhibition at 1 µM in the assay with MDA 231 cells (24 hours) was 22%; with MDA 231 cells (48 hours), 42%; in the assay on MDA 231 cells (72 hours) it was 50%; with MDA 435 cells (24 hours) it was 19%; in the assay on MDA 435 cells (48 hours), 45%; in the assay with MDA 435 cells (72 hours), 73%. The inhibition at 3.3 µM in the assay on MDA 231 cells (24 hours) came out at 33%; with MDA 231 cells (48 hours), 51%; with MDA 231 cells (72 hours), 68%; in the assay on MDA 435 cells (24 hours) it was 81%; in the assay on MDA 435 cells (48 hours), 93%; in the assay on MDA 435 cells (72 hours) it was 83%. In addition, the inhibition at 10 µM in the assay on MDA 231 cells (24 hours) came out at 37%; in the assay with MDA 231 cells (48 hours), 50%; with MDA 231 cells (72 hours), 73%; with MDA 435 cells (24 hours) it was 91%; in the assay with MDA 435 cells (48 hours) it was 99%; in the assay with MDA 435 cells (72 hours), 100%.
Take `C/C(=C/C=C/C(C)=C/C(=O)Nc1ccc(O)cc1)c1ccccc1` [N-(4-hydroxyphenyl)-(2E,4E,6Z)-7-phenyl-3,7-dimethyl-2,4,6-heptatrienamide]: the inhibition at 1 µM in the assay with MDA 231 cells (24 hours) worked out at 45%; in the assay with MDA 231 cells (48 hours), 67%; in the assay with MDA 231 cells (72 hours), 76%; in the assay on MDA 435 cells (24 hours), 3%; with MDA 435 cells (48 hours) it was 39%; with MDA 435 cells (72 hours), 41%. The inhibition at 3.3 µM with MDA 231 cells (24 hours) is 57%; with MDA 231 cells (48 hours) it was 80%; in the assay on MDA 231 cells (72 hours) it was 87%; with MDA 435 cells (24 hours), 3%; with MDA 435 cells (48 hours), 40%; with MDA 435 cells (72 hours) it was 51%. Besides, the inhibition at 10 µM with MDA 231 cells (24 hours) came to 58%; with MDA 231 cells (48 hours) it was 81%; with MDA 231 cells (72 hours) it was 88%; in the assay with MDA 435 cells (24 hours) it was 2%; in the assay on MDA 435 cells (48 hours), 42%; in the assay with MDA 435 cells (72 hours), 68%.
